The values that follow come from ChEMBL document CHEMBL3853355, “Six new compounds from Atractylodes lancea and their hepatoprotective activities” (2016).

The subject of this test is HepG2. The experiment in a line: Hepatoprotective activity against N-acetyl-p-aminophenol-induced cell injury in human HepG2 cells assessed as cell survival at 10 uM after 48 hrs by MTT assay (reference value: 39.87%). The test is classed as functional. The conditions noted are these: HepG2, 48 h, read-out: Survival. On the technique in general: Tetrazolium assays rely on reduction of a dye to a coloured formazan, in cell work by metabolically active cells.
Take `C/C(=C\Cc1cc(C(=O)O)cc2c1O[C@H](C(C)(C)O)[C@H]2O)CO`: the viability at 10 µM worked out at 53.6%. For `COc1cc(-c2coc3c([C@@H]4O[C@H](CO)[C@@H](O)[C@H](O)[C@H]4O)c(O)ccc3c2=O)ccc1O`, the viability at 10 µM is 45.2%.

Take `C[C@@H]1O[C@@H](Oc2ccc(C(=O)O)cc2)[C@H](O)[C@H](O[C@@H]2O[C@H](CO)[C@@H](O)[C@H](O)[C@H]2O)[C@H]1O`: the viability at 10 µM was 54.7%. In the case of `COc1cc(C(=O)O)ccc1O[C@@H]1O[C@@H](C)[C@H](O)[C@@H](O[C@@H]2O[C@H](CO)[C@@H](O)[C@H](O)[C@H]2O)[C@H]1O` it was 54.6%; in that of `COC(=O)c1cc(OC)c2c(c1-c1c(CO)cc(OC)c3c1OCO3)OCO2` [BICYCLOL], 52.9%.

Take `O=c1c(-c2ccc(O)cc2)coc2c([C@@H]3O[C@H](CO)[C@@H](O)[C@H](O)[C@H]3O)c(O)ccc12` [PUERARIN]: the viability at 10 µM was 41.3%.
